Like-named read-outs stand apart in the source and are kept apart here.
Columns and labels:
α-glucosidase [1] = target: T1, α-glucosidase (Saccharomyces cerevisiae, UniProt P53341); assay: biochemical; format: biochemical; settings: for anti-α-glucosidase activity in words: in comparison to acarbose; for decrease of inhibitory activity relative to compound 9g: replacement or removal of 4-OH of 9g
T1 construct: purchased Sigma-Aldrich
Procedure: Yeast form of α-glucosidase (EC3.2.1.20, Saccharomyces cerevisiae, 20 U mg^−1) and p-nitrophenyl glucopyranoside as substrate were purchased from Sigma-Aldrich. […] IC50 values were calculated by the percentage of enzyme inhibition and non-linear regression curve using the logit method.

α-glucosidase [2] = target: T1, α-glucosidase; assay: Enzyme kinetics study for α-glucosidase inhibition; format: biochemical
Procedure: The 20 μL of α-glucosidase solution (1 U mL^−1) was incubated with different concentrations of compound 9g (0, 2.25, 4.5, and 9 μM) for 15 min at 30 °C. After that, the enzymatic reaction was started by adding different concentrations of p-nitrophenyl glucopyranoside (substrate, 1–4 mM), and change in absorbance was measured for 20 min at 405 nm by spectrophotometer (Gen5, Power Wave xs2, BioTek, America).

α-glucosidase [3] = assay: Literature α-glucosidase inhibition of quinoline template A; format: biochemical; settings: template A vs acarbose of that study
α-glucosidase [4] = settings: read-out: IC50 against α-glucosidase; Fig. 1, template A study; cited from earlier work
α-glucosidase [5] = target: α-glucosidase; design: method as in PMID 28110817; settings: Fig. 1, template B study; read-out: IC50 against α-glucosidase; cited from earlier work
[6] = yeast α-glucosidase, p-nitrophenyl glucopyranoside substrate, pH 6.8, 37 °C, mean ± SD, read-out: IC50 against α-glucosidase

T1 sequence (P53341 whole entry): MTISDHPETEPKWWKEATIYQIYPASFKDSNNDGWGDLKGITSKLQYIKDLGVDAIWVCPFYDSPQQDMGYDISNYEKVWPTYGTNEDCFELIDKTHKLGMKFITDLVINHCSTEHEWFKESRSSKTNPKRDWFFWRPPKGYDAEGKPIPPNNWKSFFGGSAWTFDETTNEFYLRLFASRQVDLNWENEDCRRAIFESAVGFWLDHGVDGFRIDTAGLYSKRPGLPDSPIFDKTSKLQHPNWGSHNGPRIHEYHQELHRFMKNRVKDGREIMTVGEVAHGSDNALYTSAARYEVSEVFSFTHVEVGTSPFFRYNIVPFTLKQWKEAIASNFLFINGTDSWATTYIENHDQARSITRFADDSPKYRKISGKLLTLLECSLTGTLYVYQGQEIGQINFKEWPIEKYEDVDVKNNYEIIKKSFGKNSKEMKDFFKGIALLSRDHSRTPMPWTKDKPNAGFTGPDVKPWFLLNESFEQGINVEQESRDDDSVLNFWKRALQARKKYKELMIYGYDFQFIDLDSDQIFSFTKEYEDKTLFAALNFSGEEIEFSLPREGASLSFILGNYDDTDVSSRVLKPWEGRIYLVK

In the case of `O=C(CSc1nc2ccccc2cc1-c1nc2ccccc2c(=O)[nH]1)Nc1ccccc1` [9a, 2-{[3-(4-Oxo-3,4-dihydroquinazolin-2-yl)quinolin-2-yl]thio}-N-phenylacetamide], the “anti-α-glucosidase activity in words” value (α-glucosidase [1]) is reported as “potent members”, the “decrease of inhibitory activity relative to compound 9g” value (α-glucosidase [1]) is reported as 2.8 fold and the IC50 (α-glucosidase [1]; [6]) is reported as 25.8 ± 0.6 µM. The melting point was 200 to 202 °C.
For `Cc1ccc(NC(=O)CSc2nc3ccccc3cc2-c2nc3ccccc3c(=O)[nH]2)cc1` [9b, 2-{[3-(4-Oxo-3,4-dihydroquinazolin-2-yl)quinolin-2-yl]thio}-N-(p-tolyl)acetamide], the IC50 (α-glucosidase [1]; [6]) was over 750 µM and the melting point was 203 to 205 °C.
Compound `Cc1cccc(NC(=O)CSc2nc3ccccc3cc2-c2nc3ccccc3c(=O)[nH]2)c1C` [9c, N-(2,3-Dimethylphenyl)-2-{[3-(4-oxo-3,4-dihydroquinazolin-2-yl)quinolin-2-yl]thio}acetamide] has an IC50 (α-glucosidase [1]; [6]) of over 750 µM and a melting point of 208 to 210 °C.
`Cc1cccc(C)c1NC(=O)CSc1nc2ccccc2cc1-c1nc2ccccc2c(=O)[nH]1` [9d, N-(2,6-Dimethylphenyl)-2-{[3-(4-oxo-3,4-dihydroquinazolin-2-yl)quinolin-2-yl]thio}acetamide] showed an IC50 (α-glucosidase [1]; [6]) of over 750 µM and a melting point of 220 to 222 °C.
Work on `CCc1ccc(NC(=O)CSc2nc3ccccc3cc2-c2nc3ccccc3c(=O)[nH]2)cc1` [9e, N-(4-Ethylphenyl)-2-{[3-(4-oxo-3,4-dihydroquinazolin-2-yl)quinolin-2-yl]thio}acetamide] yielded an IC50 (α-glucosidase [1]; [6]) of over 750 µM and a melting point of 208 to 210 °C.
For `COc1ccc(NC(=O)CSc2nc3ccccc3cc2-c2nc3ccccc3c(=O)[nH]2)cc1` [9f, N-(4-Methoxyphenyl)-2-{[3-(4-oxo-3,4-dihydroquinazolin-2-yl)quinolin-2-yl]thio}acetamide], the IC50 (α-glucosidase [1]) was 37.7 ± 2.9 µM, the “anti-α-glucosidase activity in words” value (α-glucosidase [1]) was “potent members” and the “decrease of inhibitory activity relative to compound 9g” value (α-glucosidase [1]) was 4.1 fold. It also gave a melting point of 203 to 205 °C.
With `O=C(CSc1nc2ccccc2cc1-c1nc2ccccc2c(=O)[nH]1)Nc1ccc(O)cc1` [9g, N-(4-Hydroxyphenyl)-2-{[3-(4-oxo-3,4-dihydroquinazolin-2-yl)quinolin-2-yl]thio}acetamide] the “fold more potent than the most potent compound among template compounds C” value (α-glucosidase [1]; comparison with literature compounds C) was 8.8 fold, the “anti-α-glucosidase activity in words” value (α-glucosidase [1]) was “potent members” and the IC50 (α-glucosidase [1]; [6]) was 9 ± 0.3 µM. The type of inhibition (α-glucosidase [2]; Lineweaver–Burk plots) was “competitive”, the Ki (α-glucosidase [2]; secondary re-plot of Lineweaver–Burk plots, 0, 2.25, 4.5, 9.0 μM inhibitor) was 7 µM and the melting point was 210 to 212 °C.
For `O=C(CSc1nc2ccccc2cc1-c1nc2ccccc2c(=O)[nH]1)Nc1ccccc1F` [9h, N-(2-Fluorophenyl)-2-{[3-(4-oxo-3,4-dihydroquinazolin-2-yl)quinolin-2-yl]thio}acetamide], the “anti-α-glucosidase activity in words” value (α-glucosidase [1]) was “eradicated inhibitory activity”, the IC50 (α-glucosidase [1]; [6]) was over 750 µM and the melting point was 209 to 211 °C.
With `O=C(CSc1nc2ccccc2cc1-c1nc2ccccc2c(=O)[nH]1)Nc1ccc(F)cc1` [9i, N-(4-Fluorophenyl)-2-{[3-(4-oxo-3,4-dihydroquinazolin-2-yl)quinolin-2-yl]thio}acetamide] the “anti-α-glucosidase activity in words” value (α-glucosidase [1]) was “eradicated inhibitory activity”, the IC50 (α-glucosidase [1]; [6]) was over 750 µM and the melting point was 206 to 208 °C.
In the case of `O=C(CSc1nc2ccccc2cc1-c1nc2ccccc2c(=O)[nH]1)Nc1cccc(Cl)c1` [9j, N-(3-Chlorophenyl)-2-{[3-(4-oxo-3,4-dihydroquinazolin-2-yl)quinolin-2-yl]thio}acetamide], the “anti-α-glucosidase activity in words” value (α-glucosidase [1]) is reported as “potent members”, the IC50 (α-glucosidase [1]; [6]) is reported as 53.4 ± 2.3 µM and the melting point is reported as 212 to 214 °C.
With `O=C(CSc1nc2ccccc2cc1-c1nc2ccccc2c(=O)[nH]1)Nc1ccc(Cl)cc1` [9k, N-(4-Chlorophenyl)-2-{[3-(4-oxo-3,4-dihydroquinazolin-2-yl)quinolin-2-yl]thio}acetamide] the “anti-α-glucosidase activity in words” value (α-glucosidase [1]) was “potent members”, the IC50 (α-glucosidase [1]; [6]) was 40.1 ± 1.2 µM and the melting point was 209 to 211 °C.
In the case of `O=C(CSc1nc2ccccc2cc1-c1nc2ccccc2c(=O)[nH]1)Nc1ccc(Br)cc1` [9l, N-(4-Bromophenyl)-2-{[3-(4-oxo-3,4-dihydroquinazolin-2-yl)quinolin-2-yl]thio}acetamide], the “anti-α-glucosidase activity in words” value (α-glucosidase [1]) is reported as “eradicated inhibitory activity”, the IC50 (α-glucosidase [1]; [6]) is reported as over 750 µM and the melting point is reported as 208 to 210 °C.
With `O=C(CSc1nc2ccccc2cc1-c1nc2ccccc2c(=O)[nH]1)Nc1ccc([N+](=O)[O-])cc1` [9m, N-(4-Nitrophenyl)-2-{[3-(4-oxo-3,4-dihydroquinazolin-2-yl)quinolin-2-yl]thio}acetamide] the “anti-α-glucosidase activity in words” value (α-glucosidase [1]) was “potent members”, the IC50 (α-glucosidase [1]; [6]) was 52 ± 1.4 µM and the melting point was 217 to 219 °C.
Compound `O=C(CSc1nc2ccccc2cc1-c1nc2ccccc2c(=O)[nH]1)NCc1ccccc1` [9n, N-Benzyl-2-{[3-(4-oxo-3,4-dihydroquinazolin-2-yl)quinolin-2-yl]thio}acetamide] has an IC50 (α-glucosidase [1]; [6]) of over 750 µM and a melting point of 201 to 203 °C.
With `Cc1ccc(CNC(=O)CSc2nc3ccccc3cc2-c2nc3ccccc3c(=O)[nH]2)cc1` [9o, N-(4-Methylbenzyl)-2-{[3-(4-oxo-3,4-dihydroquinazolin-2-yl)quinolin-2-yl]thio}acetamide] the IC50 (α-glucosidase [1]; [6]) was over 750 µM and the melting point was 202 to 204 °C.
`O=C(CSc1nc2ccccc2cc1-c1nc2ccccc2c(=O)[nH]1)NCc1ccc(F)cc1` [9p, N-(4-Fluorobenzyl)-2-{[3-(4-oxo-3,4-dihydroquinazolin-2-yl)quinolin-2-yl]thio}acetamide] gave an IC50 (α-glucosidase [1]; [6]) of over 750 µM and a melting point of 205 to 207 °C.
For `O=C(O)c1ccc2ccccc2n1` [Compound A], the “fold more potent than acarbose” value (α-glucosidase [3]) is listed as 7.3 fold and the IC50 (α-glucosidase [4]) is listed as 9.1 ± 2.3 µM.
In the case of `O=c1[nH]c(-c2ccc(Cl)cc2)nc2ccccc12` [Compound B], the IC50 (α-glucosidase [5]) is given as 12.5 ± 0.1 µM.

From publication PMC10291282, “Synthesis, ADMT prediction, and in vitro and in silico α-glucosidase inhibition evaluations of new quinoline–quinazolinone–thioacetamides” (RSC Advances, 2023)
